{"source": "patent US20150086643A1", "about": "“TRADITIONAL CHINESE MEDICINE COMPOUND ANTITUMOR NANO PREPARATION AND USE THEREOF” (priority 2013, published 2015)", "tested_on": "H22 hepatoma carcinoma cells", "assay": "In-vivo tumor inhibitory effect in H22 tumor-bearing Kunming mice", "method": "The tumor-bearing Kunming mice are used to evaluate the in-vivo tumor inhibitory effect of the compound multiple-unit capsule of the present invention. Inoculating H22 hepatoma carcinoma cells (provided by Shanghai Institute of Materia Medica of Chinese Academy of Sciences) to enterocoelia of mice, taking out the H22 cells cultivated in the enterocoelia of mice after 6-8 days and preparing into homogeneous suspension with PBS; subcutaneously inoculating 0.2 mL of H22 cells (2×10^6/mL) to right axilla of each mouse. After inoculation, the mice are divided into 5 groups, 10 mice for each group: (1) Normal saline group (blank control), (2) 5-FU group (positive control), (3) 0.5% CMC-Na group, (4) Niu Huang Xing Xiao pill group and (5) Compound multiple-unit capsule group. The 5-FU group is subjected to administration through intraperitoneal injection, once every two days, with the dosage being 25 mg/kg. And the other four groups are subjected to intragastric administration. Preparation method of the Niu Huang Xing Xiao pill group and the compound multiple-unit capsule group is as follows: taking prescription amount of each component, adding the components into 0.5% CMC-Na water solution to prepare suspension. The concentration of drug for administration according to the original prescription for the groups (4) and (5) is 450 mg/kg (with the concentration of realgar being about 75 mg/kg). The tumor inhibiting rate is calculated with the following formula:\nTumor inhibiting rate=(C−T)/C×100%; C and T being average weight of the tumors on mice of the blank control and the treatment group."}
{"smiles": "O=c1[nH]cc(F)c(=O)[nH]1", "note": "[Example 5-FU, 5-FU]", "values": [{"measurement": "Weight of mice (g) After", "setting": "after treatment, n=10", "result": "24.20 ± 1.75", "unit": "g"}, {"measurement": "Weight of mice (g) Before", "setting": "before treatment, n=10", "result": "20.20 ± 0.92", "unit": "g"}, {"measurement": "Weight of tumor", "setting": "n=10, 5-FU 25 mg/kg i.p. once every two days, pill and capsule 450 mg/kg intragastric", "result": "0.50 ± 0.13", "unit": "g"}, {"measurement": "Tumor inhibiting rate (%)", "setting": "n=10, (C−T)/C×100% vs blank control, 5-FU 25 mg/kg i.p., pill and capsule 450 mg/kg intragastric", "result": 67.95, "unit": "%"}]}
